Measured values from patent publication US12502380B2, “MrgprX2 antagonists for the treatment of inflammatory disorders” (Dermira, Inc., priority 2019, dated 2025).

Biological target: T1, Human MrgprX2 (Homo sapiens, UniProt Q96LB1)
T1 construct: expressed in transfected cells
T1 sequence (Q96LB1 1-330): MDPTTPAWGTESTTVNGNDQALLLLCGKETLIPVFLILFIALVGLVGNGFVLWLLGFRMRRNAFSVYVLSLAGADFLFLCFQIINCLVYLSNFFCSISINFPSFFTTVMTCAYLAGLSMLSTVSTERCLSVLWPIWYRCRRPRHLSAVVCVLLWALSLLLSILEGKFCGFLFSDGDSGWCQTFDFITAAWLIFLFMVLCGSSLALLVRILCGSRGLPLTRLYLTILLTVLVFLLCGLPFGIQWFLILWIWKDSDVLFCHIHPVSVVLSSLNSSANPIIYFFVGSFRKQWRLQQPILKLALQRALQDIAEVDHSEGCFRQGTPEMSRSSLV
Assay: Human MrgprX2 antagonist FLIPR intracellular calcium mobilization assay
Type: cell-based
Settings: antagonist activity, recombinant hMrgpMRGPRX2 expressing cells, read-out: Human MrgprX2 Antagonist pIC50 (converted)
Excerpt: Potent and selective hMrgpMRGPRX2 compounds have been generated from compounds identified during a high throughput screening (HTS) campaign and followed up with cycles of structure activity based medicinal chemistry efforts. These compounds were characterized in recombinant hMrgpMRGPRX2 expressing cells for their antagonist activity and the potency was confirmed in the human mast cell line LAD-2, where the target is endogenously expressed. The assays used to determine potencies are functional read-out looking at intracellular calcium mobilization using the FLIPR™ technology. In these FLIPR assays, we test the identified compounds using recombinant cellular systems expressing mouse MrgprB2, mouse MrgprA1, gerbil MrgpMRGPRX2 orthologue, Chinese hamster MrgpMRGPRX2 orthologue and cynomolgus monkey MrgpMRGPRX2 orthologue, respectively for orthologue activity.

IC50 [µM]	SMILES
0.126	C[C@@]1(C(=O)Nc2ncc(Cc3cccc(F)c3)s2)CCOC1 (single isomer, unassigned) [Compound E048, N-[5-[(3-fluorophenyl)methyl]thiazol-2-yl]-3-methyl-tetrahydrofuran-3-carboxamide]
0.2	C[C@]1(C(=O)Nc2ncc(Cc3cccc(F)c3)s2)CCOC1 (single isomer, unassigned) [Compound E049, N-[5-[(3-fluorophenyl)methyl]thiazol-2-yl]-3-methyl-tetrahydrofuran-3-carboxamide]
0.0631	C[C@@]1(C(=O)Nc2ncc(Cc3cccc(Cl)c3)s2)CCOC1 (single isomer, unassigned) [Compound E050, N-[5-[(3-chlorophenyl)methyl]thiazol-2-yl]-3-methyl-tetrahydrofuran-3-carboxamide]
0.1	C[C@]1(C(=O)Nc2ncc(Cc3cccc(Cl)c3)s2)CCOC1 (single isomer, unassigned) [Compound E051, N-[5-[(3-chlorophenyl)methyl]thiazol-2-yl]-3-methyl-tetrahydrofuran-3-carboxamide]
0.00398	C[C@@]1(C(=O)Nc2ncc(Cc3cc(F)cc(F)c3)s2)CCOC1 (single isomer, unassigned) [Compound E052, N-[5-[(3,5-difluorophenyl)methyl]thiazol-2-yl]-3-methyl-tetrahydrofuran-3-carboxamide]
0.00794	C[C@]1(C(=O)Nc2ncc(Cc3cc(F)cc(F)c3)s2)CCOC1 (single isomer, unassigned) [Compound E053, N-[5-[(3,5-difluorophenyl)methyl]thiazol-2-yl]-3-methyl-tetrahydrofuran-3-carboxamide]
0.00398	C[C@@]1(C(=O)Nc2ncc(Oc3cccc(F)c3)s2)CCOC1 (single isomer, unassigned) [Compound E083, N-[5-(3-fluorophenoxy)thiazol-2-yl]-3-methyl-tetrahydrofuran-3-carboxamide]
0.00316	C[C@]1(C(=O)Nc2ncc(Oc3cccc(F)c3)s2)CCOC1 (single isomer, unassigned) [Compound E084, N-[5-(3-fluorophenoxy)thiazol-2-yl]-3-methyl-tetrahydrofuran-3-carboxamide]
0.398	CC1(C(=O)Nc2ncc(Cc3ccc(F)cc3)s2)CCOCC1 [Compound E001, N-[5-[(4-fluorophenyl)methyl]thiazol-2-yl]-4-methyl-tetrahydropyran-4-carboxamide]
7.94	CC(C)C(=O)Nc1ncc(Cc2cccc(C(F)(F)F)c2)s1 [Compound E002]
0.0398	CC(C)(C(=O)Nc1ncc(Cc2ccccc2F)s1)N1CCOCC1 [Compound E003]
0.398	CC1(C(=O)Nc2ncc(Cc3ccccc3F)s2)CCOCC1 [Compound E004]
3.98	CC(C)(O)C(=O)Nc1ncc(Cc2ccccc2F)s1 [Compound E005]
0.126	CC(C)(C(=O)Nc1ncc(Cc2ccc(F)cc2)s1)N1CCOCC1 [Compound E006]
0.1	CC1(C(=O)Nc2ncc(Cc3cccc(F)c3)s2)CCOCC1 [Compound E007]
3.98	O=C(Nc1ncc(Cc2ccccc2F)s1)C1CCOC1 (centres unmarked) [Compound E008]
0.316	CC(C(=O)Nc1ncc(Cc2ccccc2F)s1)N1CCOCC1 (centres unmarked) [Compound E009]
1.26	CC(C)(CO)C(=O)Nc1ncc(Cc2ccccc2F)s1 [Compound E010]
0.501	CN(C)C(C)(C)C(=O)Nc1ncc(Cc2ccccc2F)s1 [Compound E011]
0.631	CC(C)(C#N)C(=O)Nc1ncc(Cc2ccccc2F)s1 [Compound E012]

IC50 [µM]	SMILES
0.398	O=C(CN1CCCCC1)Nc1ncc(Cc2ccccc2F)s1 [Compound E013]
0.631	CC1(C(=O)Nc2ncc(Cc3ccccc3F)s2)CCOC1 (centres unmarked) [Compound E014]
0.126	CC1(C(=O)Nc2ncc(Cc3cccc(F)c3)s2)CCOC1 (centres unmarked) [Compound E015, N-[5-[(3-fluorophenyl)methyl]thiazol-2-yl]-3-methyl-tetrahydrofuran-3-carboxamide]
3.98	CC1(C(=O)Nc2ncc(Cc3ccccc3F)s2)COC1 [Compound E016]
1.26	CC(C(=O)Nc1ncc(Cc2ccccc2F)s1)N1CCCC1 (centres unmarked) [Compound E017]
0.316	CC(C)(C)OC(=O)N1CCC(C)(C(=O)Nc2ncc(Cc3ccccc3F)s2)CC1 [Compound E018]
0.251	COC(C)(C)C(=O)Nc1ncc(Cc2ccccc2F)s1 [Compound E019]
0.126	CC1(C(=O)Nc2ncc(Oc3ccccc3)s2)CCOCC1 [Compound E020]
0.251	CC(C)(F)C(=O)Nc1ncc(Cc2ccccc2F)s1 [Compound E021]
5.01	CC(F)(F)C(=O)Nc1ncc(Cc2ccccc2F)s1 [Compound E022]
0.126	CC1(C(=O)Nc2ncc(Cc3cccc(Cl)c3)s2)CCOCC1 [Compound E023]
0.398	Cc1cccc(Cc2cnc(NC(=O)C3(C)CCOCC3)s2)c1 [Compound E024]
0.2	CC(O)(C(=O)Nc1ncc(Cc2cccc(F)c2)s1)C(F)(F)F (centres unmarked) [Compound E025]
2.51	O=C(Nc1ncc(Cc2cccc(F)c2)s1)C1(O)CC1 [Compound E026]
0.1	O=C(Nc1ncc(Cc2cccc(F)c2)s1)C1(C(F)(F)F)CC1 [Compound E027]
6.31	N#CC1(C(=O)Nc2ncc(Cc3ccccc3F)s2)CCOCC1 [Compound E028]
0.631	O=C(Nc1ncc(Cc2cccc(F)c2)s1)C1(CO)CC1 [Compound E029]
2	C[C@@H](CO)C(=O)Nc1ncc(Cc2cccc(F)c2)s1 [Compound E031]
7.94	CC1(C(=O)Nc2ncc(Cc3cccc(F)c3)s2)CCC(=O)N1 (centres unmarked) [Compound E032]
0.0794	CC1(C(=O)Nc2ncc(Cc3cccc(Cl)c3)s2)CCOC1 (centres unmarked) [Compound E033, N-[5-[(3-chlorophenyl)methyl]thiazol-2-yl]-3-methyl-tetrahydrofuran-3-carboxamide]

IC50 [µM]	SMILES
0.158	CC(C)(C#N)C(=O)Nc1ncc(Cc2cccc(Cl)c2)s1 [Compound E034]
3.16	CC(C)(C)OC(=O)N1CCC[C@@H]1C(=O)Nc1ncc(Cc2cccc(F)c2)s1 [Compound E035, tert-butyl (2R)-2-[[5-[(3-fluorophenyl)methyl]thiazol-2-yl]carbamoyl]pyrrolidine-1-carboxylate]
0.316	CC1(C(=O)Nc2ncc(Cc3cccc(Cl)c3)s2)COC1 [Compound E036]
0.251	CC(C)(C)OC(=O)N1CCC[C@]1(C)C(=O)Nc1ncc(Cc2cccc(F)c2)s1 [Compound E037, tert-butyl (2R)-2-[[5-[(3-fluorophenyl)methyl]thiazol-2-yl]carbamoyl]-2-methyl-pyrrolidine-1-carboxylate]
1.58	O=C(Nc1ncc(Cc2cccc(F)c2)s1)C1CCCC1O (centres unmarked) [Compound E038]
6.31	CC(C)C(=O)Nc1nc(-c2ccccc2)cs1 [Compound E039]
0.631	Cc1nc(NC(=O)C(C)C)sc1Cc1ccccc1 [Compound E040]
0.002	CC(C)C(=O)Nc1ncc(Cc2cc(F)cc(F)c2)s1 [Compound E041]
0.0398	CC(C)C(=O)Nc1ncc(Cc2ccc(F)cc2F)s1 [Compound E042]
0.00794	CC(C)C(=O)Nc1ncc(Cc2ccc(F)c(F)c2)s1 [Compound E043]
0.0158	CC1(C(=O)Nc2ncc(Cc3cc(F)cc(F)c3)s2)CCOCC1 [Compound E044]
0.158	CC1(C(=O)Nc2ncc(Cc3ccc(F)c(F)c3)s2)CCOCC1 [Compound E045]
0.00501	CC1(C(=O)Nc2ncc(Cc3cc(F)cc(F)c3)s2)CCOC1 (centres unmarked) [Compound E046, N-[5-[(3,5-difluorophenyl)methyl]thiazol-2-yl]-3-methyl-tetrahydrofuran-3-carboxamide]
0.0251	CC1(C(=O)Nc2ncc(Cc3cc(F)cc(F)c3)s2)COC1 [Compound E047]
0.0398	CN1CCC[C@@H]1C(=O)Nc1ncc(Cc2cccc(F)c2)s1 [Compound E054, (2R)—N-[5-[(3-fluorophenyl)methyl]thiazol-2-yl]-1-methyl-pyrrolidine-2-carboxamide]
3.98	CC(=O)N1CCC[C@@H]1C(=O)Nc1ncc(Cc2cccc(F)c2)s1 [Compound E055, (2R)-1-acetyl-N-[5-[(3-fluorophenyl)methyl]thiazol-2-yl]pyrrolidine-2-carboxamide]
1.58	CS(=O)(=O)N1CCC[C@@H]1C(=O)Nc1ncc(Cc2cccc(F)c2)s1 [Compound E056, (2R)—N-[5-[(3-fluorophenyl)methyl]thiazol-2-yl]-1-methylsulfonyl-pyrrolidine-2-carboxamide]
0.0316	NS(=O)(=O)N1CCC[C@@H]1C(=O)Nc1ncc(Cc2cccc(F)c2)s1 [Compound E057, (2R)—N-[5-[(3-fluorophenyl)methyl]thiazol-2-yl]-1-sulfamoyl-pyrrolidine-2-carboxamide]
0.126	CN1CCC[C@H]1C(=O)Nc1ncc(Cc2cccc(F)c2)s1 [Compound E058, (2S)—N-[5-[(3-fluorophenyl)methyl]thiazol-2-yl]-1-methyl-pyrrolidine-2-carboxamide]
